# Data reported in US20110251229A1 (priority 2007, published 2011).
# Entries after “also recorded” stand apart in the source; their conditions may differ.
# Experiments:
# [1] = test system: rats with chronic constriction injury of the sciatic nerve; test: Chronic constriction injury (CCI)-induced allodynia, von Frey test; details: for reversal of neuropathic pain: rat, in vivo; for reversal of CCI-induced allodynia: 60 mg/kg s.c.; for reversal of established CCI-induced allodynia: delivery intrathecally or systemically
# [2] = test system: astrocyte (GFAP) and microglia (CD11b/c) activation markers; test: Glial activation markers (GFAP, CD11b/c) in L5 spinal cord of CCI rats, immunohistochemistry; format: in vivo, rat; details: 60 μg/hr intrathecal across 4 days, vs vehicle; for CD11b/c expression: bilaterally; for GFAP expression in ipsilateral or contralateral dorsal horns: densitometry
# Experimental: Following the final behavioral testing rats were transcardially perfused first with isotonic saline and then with fresh 4% paraformaldehyde/0.1 M phosphate buffer (4% PFA/PB, pH 7.4). After dissection and immersion post-fixation in 4% PFA/PB for an additional 24 hr, the lumbar spinal cords then dehydrated in 30% sucrose with 0.1% azide at 4° C. until slicing.
# For immunohistochemistry, sections were treated to suppress endogenous peroxidase and to prevent staining of endogenous biotin. The sections were incubated in either primary mouse monoclonal anti-rat glial fibrillary acidic protein (GFAP) (1:500; to visualize astrocyte astrocyte activation; ICN Biomedicals, Costa Mesa, Calif.) or primary mouse monoclonal anti-rat OX-42 (1:500; to visualize microglial activation; BioSource, Camarillo, Calif.) for 24 hr at 4° C. The slides were then incubated in secondary biotinylated goat anti-mouse IgG antibody (1:500; Jackson ImmunoResearch, West Grove, Pa.) overnight at 4° C. Finally sections were reacted using the avidin-biotin complex procedure (ABC, Vector Elite kit; 1:100 in PBS-Triton; 2 hr; Vector laboratories, Burlingame, Calif.) and 3′,3′-diaminobenzidine (DAB; Sigma-Aldrich). Glucose oxidase (Sigma-Aldrich; type V-s; 0.02%) and beta-D-glucose (0.1%) were used to generate hydrogen peroxide. […] ammonium sulfate was added to the DAB solution (0.025% w/v) to intensify the reaction product. One series of sections was processed as described above except that the primary antibody was omitted from the incubation buffer (omission controls). The slides were dried overnight, cleared, and cover slipped.
# Slides were viewed with an Olympus Vannox II bright-field microscope. Images were collected with a Cohu CCD camera coupled to an Apple PowerMac 7200 equipped with NIH Image software (version 1.60). Brightness and contrast were kept constant with the images not altered. The intensity of the light source was calibrated each day.
# Representative sections (10×) of ipsilateral dorsal horns of neuropathic (CCI) rats treated intrathecally with 60 μg/hr (+)-naloxone ([…]), 60 μg/hr (−)-naloxone (FIG. 18F), and vehicle (FIG. 18G) are shown. […] Scale bar=500 μm.
# human TLR4 = target: T1, human TLR4 (Homo sapiens, UniProt O00206); format: cell-based
# T1 construct: host or cells: HEK 293
# T1 sequence (O00206 24-839): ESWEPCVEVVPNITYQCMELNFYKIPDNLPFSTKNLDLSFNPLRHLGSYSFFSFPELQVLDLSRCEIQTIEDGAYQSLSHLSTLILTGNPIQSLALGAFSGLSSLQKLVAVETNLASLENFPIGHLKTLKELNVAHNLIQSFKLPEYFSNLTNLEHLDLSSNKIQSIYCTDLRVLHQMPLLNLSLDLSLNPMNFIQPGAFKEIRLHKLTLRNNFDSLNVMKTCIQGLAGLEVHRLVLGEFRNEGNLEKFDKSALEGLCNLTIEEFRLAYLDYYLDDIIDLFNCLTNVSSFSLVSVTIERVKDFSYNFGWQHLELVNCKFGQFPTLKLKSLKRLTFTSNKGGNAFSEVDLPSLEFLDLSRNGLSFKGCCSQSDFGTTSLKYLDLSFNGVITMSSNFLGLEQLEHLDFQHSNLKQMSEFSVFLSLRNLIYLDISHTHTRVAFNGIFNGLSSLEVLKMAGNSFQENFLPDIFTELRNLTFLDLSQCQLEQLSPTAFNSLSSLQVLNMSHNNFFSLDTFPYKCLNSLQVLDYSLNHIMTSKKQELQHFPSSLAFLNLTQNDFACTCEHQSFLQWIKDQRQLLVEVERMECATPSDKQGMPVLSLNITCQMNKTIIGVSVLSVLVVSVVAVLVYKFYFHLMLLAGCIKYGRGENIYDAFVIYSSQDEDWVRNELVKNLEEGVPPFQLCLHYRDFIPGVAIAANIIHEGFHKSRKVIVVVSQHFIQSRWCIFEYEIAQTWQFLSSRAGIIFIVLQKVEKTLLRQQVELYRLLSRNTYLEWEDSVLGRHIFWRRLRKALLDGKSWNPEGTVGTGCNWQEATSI
# T1 sequence (Q9Y6Y9 17-160 partner limits assumed): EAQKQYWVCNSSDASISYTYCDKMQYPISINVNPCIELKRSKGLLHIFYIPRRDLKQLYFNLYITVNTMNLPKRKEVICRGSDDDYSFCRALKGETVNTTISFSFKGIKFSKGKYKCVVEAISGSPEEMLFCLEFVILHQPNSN
# [3] = test system: RAW264.7 mouse macrophage cell line expressing GFP-tagged Akt1 (TLR4 signaling); format: cell-based
# [4] = test system: HAPI microglial cell line; test: HAPI microglial cell line activation by LPS, mRNA; format: cell-based
# Experimental: HAPI microglial cell line was used to examine the effects of (+)-naloxone on microglial activation by LPS. Whereas 100 ng/mL LPS produced elevations in mRNA for CD11b (microglial activation marker), interleukin (IL)-1b, and IL-6, 1 μM (+)-naloxone abolished each of these LPS-induced effects. See FIG. 20 (GAPDH=glyceraldehyde-3-phosphate-dehydrogenase).
# TLR4 mRNA = TLR4 mRNA expression in lumbar dorsal spinal cord after chronic intrathecal opioids; format: in vivo, rat; details: 15 μg intrathecal once daily for 7 days, relative to GAPDH
# [5] = test system: morphine analgesia in rats; test: Potentiation of acute morphine analgesia, Hargreaves test; format: in vivo, rat
# morphine-treated rats = test: Chronic systemic morphine & (+)-naloxone experiment (Hargreaves, precipitated withdrawal, weight); format: in vivo, rat
# [6] = about 20 μg co-administered with morphine intrathecally
# [7] = 12 mg/day s.c. minipump with 6 mg/day morphine, 7 days
compound,measurement,setting,value
"C=CCN1CC[C@]23c4c5ccc(O)c4O[C@H]2C(=O)CC[C@@]3(O)[C@H]1C5 [naloxone, reference compound]",ipsilateral and contralateral allodynia,"[1]; chronic intrathecal osmotic minipump, 20 or 60 ug/hr, 4-96 hr",attenuation
(−)-naloxone [reference compound],CD11b/c expression,[2],reliable suppression
same,GFAP expression in ipsilateral or contralateral dorsal horns,[2],neither (+)-nor (−)-naloxone affected
same,reversal of neuropathic pain,[1],reverses neuropathic pain
"Lipopolysaccharide [LPS, reference compound]",EC50 (SEAP expression),human TLR4,0.21 ng/mL
same,Emax (SEAP expression),human TLR4,"40,956 arbitrary fluorescence units"
same,clearance of GFP-Akt1 from the cytosol,[3],"robust, rapid clearance"
same,mRNA for CD11b,[4]; 100 ng/mL,elevations
same,mRNA for IL-6,[4]; 100 ng/mL,elevations
same,mRNA for interleukin (IL)-1b,[4]; 100 ng/mL,elevations
"CN1CC[C@]23c4c5ccc(O)c4O[C@H]2[C@@H](O[C@@H]2O[C@H](C(=O)O)[C@@H](O)[C@H](O)[C@H]2O)C=C[C@H]3[C@H]1C5 [M6G, morphine-6-glucuronide, reference compound]",TLR4 agonist activity,human TLR4,not found to have any significant TLR4 agonist activity
"CN1CC[C@]23c4c5ccc(O[C@@H]6O[C@H](C(=O)O)[C@@H](O)[C@H](O)[C@H]6O)c4O[C@H]2[C@@H](O)C=C[C@H]3[C@H]1C5 [M3G, morphine-3-glucuronide, reference compound]",TLR4 agonist activity,human TLR4,showed TLR4 agonist activity
"CCC(=O)C(CC(C)N(C)C)(c1ccccc1)c1ccccc1 (centres unmarked) [methadone, reference compound]",TLR4 agonist activity,human TLR4,TLR4 agonists
(−)-methadone,TLR4 mRNA in lumbar dorsal spinal cord,TLR4 mRNA,significant elevation
"C=CCN1CC[C@]23c4c5ccc(O)c4O[C@H]2C(=O)CC[C@]3(O)[C@H]1C5 [(+)-naloxone, (+)-Naloxone]",M3G induced TLR4 signaling,human TLR4,attenuation
same,antagonism of LPS activity at TLR4,human TLR4,significant non-competitive antagonism; also recorded: non-competitively antagonizes
same,effect on basal unstimulated SEAP expression,human TLR4,no substantial effect
same,increase in the EC50 of LPS,human TLR4,3 fold
same,morphine induced TLR4 signaling,human TLR4,attenuation
same,reduction in the Emax of LPS,human TLR4,40%
same,morphine analgesia,[5]; 20 μg intrathecal with subcutaneous morphine 4 mg/kg,significantly potentiated; also recorded: potentiation
same,morphine analgesia,[5]; [6],significant potentiation of analgesia
same,development of morphine-induced hyperalgesia,morphine-treated rats; [7],blocked the development of morphine-induced hyperalgesia
same,development of tolerance,morphine-treated rats; [7],attenuated the development of tolerance
same,morphine analgesia,morphine-treated rats; [7],potentiated
same,weight gain,morphine-treated rats; [7],enabled normal weight gain
same,withdrawal behaviors,morphine-treated rats; withdrawal precipitated by 100 mg/kg (−)-naltrexone on day 7,reduced withdrawal behaviors
same,morphine-induced Akt1 response,[3]; morphine 100 μM,blocked
same,LPS-induced Akt1 response,[3]; preincubation 1mM prior to LPS 7.5 μg/mL,significantly attenuated
same,CD11b/c expression,[2],reliable suppression
same,GFAP expression in ipsilateral or contralateral dorsal horns,[2],neither (+)-nor (−)-naloxone affected
same,LPS-induced elevation in mRNA for CD11b,[4]; 1 μM with 100 ng/mL LPS,abolished
same,LPS-induced elevation in mRNA for IL-6,[4]; 1 μM with 100 ng/mL LPS,abolished
same,LPS-induced elevation in mRNA for interleukin (IL)-1b,[4]; 1 μM with 100 ng/mL LPS,abolished
same,reversal of CCI-induced allodynia,[1]; 30 min,not significantly
same,reversal of CCI-induced allodynia,[1]; 90 min,reversed CCI-induced allodynia; also recorded: reversed established allodynia; also recorded: acutely reverses
same,ipsilateral and contralateral mechanical allodynia,"[1]; 100 mg/kg subcutaneous, 14 days after CCI",reliable attenuation
same,reversal of neuropathic pain,[1],reverses neuropathic pain
"CCOC(=O)C1(c2ccccc2)CCN(C)CC1 [pethadine/meperidine, meperidine, reference compound]",TLR4 agonist activity,human TLR4,TLR4 agonists
(−)-naltrexone [reference compound],reversal of established CCI-induced allodynia,[1],reversed established CCI-induced allodynia
CCC(=O)C(C[C@H](C)N(C)C)(c1ccccc1)c1ccccc1 [(+)-methadone],TLR4 mRNA in lumbar dorsal spinal cord,TLR4 mRNA,significant elevation
O=C1CC[C@]2(O)[C@@H]3Cc4ccc(O)c5c4[C@]2(CCN3CC2CC2)[C@@H]1O5 [(+)-naltrexone],morphine analgesia,[5]; [6],significant potentiation of analgesia
same,reversal of established CCI-induced allodynia,[1],reversed established CCI-induced allodynia
"COc1ccc2c3c1O[C@H]1C(=O)CC[C@@]4(O)[C@@H](C2)N(C)CC[C@]314 [oxycodone, reference compound]",TLR4 agonist activity,human TLR4,TLR4 agonists
